# Data as given in patent US20190216761A1, “COMPOSITIONS COMPRISING 15-HEPE AND METHODS OF USING THE SAME” (Afimmune Limited, priority 2015, published 2019).
# Marks after values point to notes of the source that are not given here.
# Legend:
# Assay type in all cases: cell-based
# [1] = target: T1, hPPARα (Homo sapiens, UniProt Q07869); assay: PPAR agonist reporter assay (Gal4 hybrid receptor, luciferase)
# T1 construct: expressed in transfected cells
# T1 sequence (Q07869 239-466 limits assumed): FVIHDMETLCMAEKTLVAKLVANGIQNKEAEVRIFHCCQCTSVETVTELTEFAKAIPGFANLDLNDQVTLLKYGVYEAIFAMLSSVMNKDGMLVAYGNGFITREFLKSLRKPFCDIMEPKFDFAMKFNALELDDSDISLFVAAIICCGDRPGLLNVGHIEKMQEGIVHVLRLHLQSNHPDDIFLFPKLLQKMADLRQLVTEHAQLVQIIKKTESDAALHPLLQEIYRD
# Method: (§1) This study utilized proprietary reporter cells expressing a hybrid receptor comprising the N-terminal Gal4 DNA binding domain fused to the ligand binding domain of the specific human nuclear receptor (hPPARα, hPPARδ, and hPPARγ) and rat nuclear receptor (rPPARα, rPPARδ, and rPPARγ). The reporter vectors used in this Example comprise the firefly luciferase gene functionally linked to the Gal4 upstream activation sequence.
# Nuclear Receptor assay was performed by dispensing 100 μL of a suspension of Reporter Cells in Cell Recovery Medium (CRM) containing 10% charcoal stripped FBS into each well of a white 96-well plate. Test compounds were diluted using compound screening medium (CSM) containing 10% charcoal stripped FBS to generate “2×-concentration” treatment media. Immediately after this dilution step, 100 μL of each diluted 2×-concentration treatment medium was dispensed (in triplicate) into the Reporter Cell-containing assay wells.
# After incubation at 37° C. for 24 hours, the treatment media was discarded. 100 μL of Luciferase Detection Reagent substrate was added to each well and RLUs were quantified from each well to determine nuclear receptor activities.
# [2] = target: T2, hPPARδ (Homo sapiens, UniProt Q03181); assay: PPAR antagonist reporter assay (reference agonist at EC80)
# T2 construct: expressed in transfected cells
# T2 sequence (Q03181 211-439 limits assumed): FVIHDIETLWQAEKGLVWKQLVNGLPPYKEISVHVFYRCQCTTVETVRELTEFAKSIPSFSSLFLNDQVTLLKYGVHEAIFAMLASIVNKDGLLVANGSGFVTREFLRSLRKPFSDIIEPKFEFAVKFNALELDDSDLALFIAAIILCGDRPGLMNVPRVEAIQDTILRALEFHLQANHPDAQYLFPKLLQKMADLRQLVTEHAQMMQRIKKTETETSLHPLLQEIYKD
# Method: as §1
# (§2) Nuclear Receptor assay was performed by suspending Reporter Cells in CRM containing 10% charcoal stripped FBS. 2×-EC80 concentrations of the appropriate reference agonist were then added to the Reporter Cell suspension, and 100 μL of the mixture dispensed into wells of a white 96-well plate. Test compounds were diluted using compound screening medium (CSM) containing 10% charcoal stripped FBS to generate “2×-concentration” treatment media. Immediately after this dilution step, 100 μL of each diluted 2×-concentration treatment medium was dispensed (in triplicate) into the Reporter Cell-containing assay wells.
# (§3) After incubation at 37° C. for 24 hours, the treatment media was discarded. Each well was rinsed once with LCM Buffer; LCM substrate was then added. After incubation for 30 minutes at 37° C., fluorescence was measured to determine the relative number of live cells per assay well. LCM substrate was then discarded and 100 μL of Luciferase Detection Reagent substrate was added to each well. RLUs were quantified from each well to determine nuclear receptor activities.
# [3] = tested on: rPPARα Reporter Cells; assay: Live cell multiplex assay
# Method: as §1, §2, §3
# [4] = tested on: rPPARγ Reporter Cells; assay: Live cell multiplex assay
# Method: as §1, §2, §3
# [5] = tested on: hPPARγ Reporter Cells; assay: Live cell multiplex assay
# Method: as §1, §2, §3
# [6] = tested on: rPPARδ Reporter Cells; assay: Live cell multiplex assay
# Method: as §1, §2, §3
# [7] = tested on: hPPARδ Reporter Cells; assay: Live cell multiplex assay
# Method: as §1, §2, §3
# [8] = tested on: hPPARα Reporter Cells; assay: Live cell multiplex assay
# Method: as §1, §2, §3
smiles,measurement,setting,value
"CC/C=C\C/C=C\C/C=C\C/C=C\C/C=C\CCCC(=O)OCC [EPA-EE, EPA ethyl ester, reference compound]",Fold-Activation (vs. 0.10% DMSO) hPPAR-α,[1]; 137 nM,0.88 fold
same,Fold-Activation (vs. 0.10% DMSO) hPPAR-α,[1]; 412 nM,1.0 fold
same,Fold-Activation (vs. 0.10% DMSO) hPPAR-α,"[1]; 1,235 nM",0.90 fold
same,Fold-Activation (vs. 0.10% DMSO) hPPAR-α,"[1]; 3,704 nM",0.89 fold
same,Fold-Activation (vs. 0.10% DMSO) hPPAR-α,"[1]; 11,111 nM",0.86 fold
same,Fold-Activation (vs. 0.10% DMSO) hPPAR-α,"[1]; 33,333 nM",0.95 fold
same,Fold-Activation (vs. 0.10% DMSO) hPPAR-α,"[1]; 100,000 nM",1.1 fold
same,Fold-Activation (vs. 0.10% DMSO) hPPAR-α,"[1]; 300,000 nM",2.0* fold
same,"% Inhibition of agonist-stimulated receptor activity vs. 0.10% DMSO, hPPAR-δ",[2]; 137 nM,−3.4%
same,"% Inhibition of agonist-stimulated receptor activity vs. 0.10% DMSO, hPPAR-δ",[2]; 412 nM,−8.9%
same,"% Inhibition of agonist-stimulated receptor activity vs. 0.10% DMSO, hPPAR-δ","[2]; 1,235 nM",−5.5%
same,"% Inhibition of agonist-stimulated receptor activity vs. 0.10% DMSO, hPPAR-δ","[2]; 3,704 nM",−15%
same,"% Inhibition of agonist-stimulated receptor activity vs. 0.10% DMSO, hPPAR-δ","[2]; 11,111 nM",−7.9%
same,"% Inhibition of agonist-stimulated receptor activity vs. 0.10% DMSO, hPPAR-δ","[2]; 33,333 nM",−18%
same,"% Inhibition of agonist-stimulated receptor activity vs. 0.10% DMSO, hPPAR-δ","[2]; 100,000 nM",−6.8%
same,"% Inhibition of agonist-stimulated receptor activity vs. 0.10% DMSO, hPPAR-δ","[2]; 300,000 nM",11%
same,"inhibition of human PPARs (in words), hPPARδ",[2]; at higher test concentrations,does not exhibit similar inhibitory activity
same,"% Live cells vs. 0.10% DMSO, rPPAR-α",[3]; 137 nM,89%
same,"% Live cells vs. 0.10% DMSO, rPPAR-α",[3]; 412 nM,98%
same,"% Live cells vs. 0.10% DMSO, rPPAR-α","[3]; 1,235 nM",102%
same,"% Live cells vs. 0.10% DMSO, rPPAR-α","[3]; 3,704 nM",103%
same,"% Live cells vs. 0.10% DMSO, rPPAR-α","[3]; 11,111 nM",102%
same,"% Live cells vs. 0.10% DMSO, rPPAR-α","[3]; 33,333 nM",100%
same,"% Live cells vs. 0.10% DMSO, rPPAR-α","[3]; 100,000 nM",95%
same,"% Live cells vs. 0.10% DMSO, rPPAR-α","[3]; 300,000 nM",94%
same,"% Live cells vs. 0.10% DMSO, rPPAR-γ",[4]; 137 nM,97%
same,"% Live cells vs. 0.10% DMSO, rPPAR-γ",[4]; 412 nM,101%
same,"% Live cells vs. 0.10% DMSO, rPPAR-γ","[4]; 1,235 nM",102%
same,"% Live cells vs. 0.10% DMSO, rPPAR-γ","[4]; 3,704 nM",101%
same,"% Live cells vs. 0.10% DMSO, rPPAR-γ","[4]; 11,111 nM",100%
same,"% Live cells vs. 0.10% DMSO, rPPAR-γ","[4]; 33,333 nM",101%
same,"% Live cells vs. 0.10% DMSO, rPPAR-γ","[4]; 100,000 nM",98%
same,"% Live cells vs. 0.10% DMSO, rPPAR-γ","[4]; 300,000 nM",102%
same,"% Live cells vs. 0.10% DMSO, hPPAR-γ",[5]; 137 nM,88%
same,"% Live cells vs. 0.10% DMSO, hPPAR-γ",[5]; 412 nM,99%
same,"% Live cells vs. 0.10% DMSO, hPPAR-γ","[5]; 1,235 nM",101%
same,"% Live cells vs. 0.10% DMSO, hPPAR-γ","[5]; 3,704 nM",101%
same,"% Live cells vs. 0.10% DMSO, hPPAR-γ","[5]; 11,111 nM",101%
same,"% Live cells vs. 0.10% DMSO, hPPAR-γ","[5]; 33,333 nM",102%
same,"% Live cells vs. 0.10% DMSO, hPPAR-γ","[5]; 100,000 nM",103%
same,"% Live cells vs. 0.10% DMSO, hPPAR-γ","[5]; 300,000 nM",92%
same,"% Live cells vs. 0.10% DMSO, rPPAR-δ",[6]; 137 nM,100%
same,"% Live cells vs. 0.10% DMSO, rPPAR-δ",[6]; 412 nM,94%
same,"% Live cells vs. 0.10% DMSO, rPPAR-δ","[6]; 1,235 nM",98%
same,"% Live cells vs. 0.10% DMSO, rPPAR-δ","[6]; 3,704 nM",95%
same,"% Live cells vs. 0.10% DMSO, rPPAR-δ","[6]; 11,111 nM",100%
same,"% Live cells vs. 0.10% DMSO, rPPAR-δ","[6]; 33,333 nM",99%
same,"% Live cells vs. 0.10% DMSO, rPPAR-δ","[6]; 100,000 nM",101%
same,"% Live cells vs. 0.10% DMSO, rPPAR-δ","[6]; 300,000 nM",102%
same,"% Live cells vs. 0.10% DMSO, hPPAR-δ",[7]; 137 nM,97%
same,"% Live cells vs. 0.10% DMSO, hPPAR-δ",[7]; 412 nM,97%
same,"% Live cells vs. 0.10% DMSO, hPPAR-δ","[7]; 1,235 nM",99%
same,"% Live cells vs. 0.10% DMSO, hPPAR-δ","[7]; 3,704 nM",100%
same,"% Live cells vs. 0.10% DMSO, hPPAR-δ","[7]; 11,111 nM",101%
same,"% Live cells vs. 0.10% DMSO, hPPAR-δ","[7]; 33,333 nM",101%
same,"% Live cells vs. 0.10% DMSO, hPPAR-δ","[7]; 100,000 nM",103%
same,"% Live cells vs. 0.10% DMSO, hPPAR-δ","[7]; 300,000 nM",103%
same,"% Live cells vs. 0.10% DMSO, hPPAR-α",[8]; 137 nM,99%
same,"% Live cells vs. 0.10% DMSO, hPPAR-α",[8]; 412 nM,93%
same,"% Live cells vs. 0.10% DMSO, hPPAR-α","[8]; 1,235 nM",113%
same,"% Live cells vs. 0.10% DMSO, hPPAR-α","[8]; 3,704 nM",112%
same,"% Live cells vs. 0.10% DMSO, hPPAR-α","[8]; 11,111 nM",116%
same,"% Live cells vs. 0.10% DMSO, hPPAR-α","[8]; 33,333 nM",112%
same,"% Live cells vs. 0.10% DMSO, hPPAR-α","[8]; 100,000 nM",96%
same,"% Live cells vs. 0.10% DMSO, hPPAR-α","[8]; 300,000 nM",80%
